These are literature values, as cited in patent publication US20160068860A1, “TRANSGENIC PLANTS” (CONSEJO SUPERIOR DE INVESTIGACIONES CIENTIFICAS (CSIC), priority 2013, published 2016).

What is called Kd is the equilibrium constant for the complex coming apart.

Data set [1] concerns the target monomeric PYR/PYL receptors. Conditions: read-out: Kd for ABA; cited from earlier work.
Data set [2] concerns the target PYR/PYL receptors in the presence of clade A PP2Cs (ternary complexes). Particulars: ternary complexes in the presence of certain clade A PP2Cs; read-out: Kd for ABA; cited from earlier work.
Data set [3] addresses dimeric PYR/PYL receptors. Particulars: read-out: Kd for ABA; cited from earlier work.

`CC1=CC(=O)CC(C)(C)[C@@]1(O)/C=C/C(C)=C\C(=O)O` [ABA, abscisic acid]: the Kd in data set [1] was about 1 µM; in data set [2], 0.03 to 0.06 µM; in data set [3] it was over 50 µM.
